In patent publication US20220339143A1, “TAK-925 FOR USE IN TREATING NARCOLEPSY” (Takeda Pharmaceutical Company Limited, priority 2019, published 2022):
Read-outs that look alike come from different tables or passages of the source.

Test: Single dose PK in healthy subjects (Cohorts 1, 2, S1 and S2), plasma
Type: in vivo, human
Details: human, plasma
Description: This study investigates (i) the safety and tolerability of Compound A (methyl (2R,3S)-3-((methylsulfonyl)amino)-2-(((cis-4-phenylcyclohexyl)oxy)methyl)piperidine-1-carboxylate) when a single dose given as a 9 hour continuous IV infusion is administered to healthy adults, healthy elderly subjects and patients with narcolepsy type 1 (NT1); (ii) the pharmacokinetics of Compound A when a single dose given as a 9 hour continuous IV infusion is administered to healthy adults, healthy elderly subjects and patients with narcolepsy type 1; and (iii) the pharmacodynamics (PD) effects of Compound A, primarily by evaluation of the sleep latency on MWT when a single dose given as a 9 hour continuous IV infusion is administered to patients with narcolepsy type 1.
Pharmacokinetics: Concentrations of Compound A in plasma, and CSF, and pharmacokinetics parameters.
On average, the time to reach the plateau appeared to be approximately 3 to 4 hours after the start of infusion. […] After switching off the IV infusion, Compound A plasma concentrations declined rapidly and in a biphasic manner with a mean terminal disposition phase t1/2z ranging approximately from 3.4 to 5.1 hours across all doses. […] Table 5 provides a summary of plasma concentrations of Compound A after a single IV infusion in healthy subjects. Table 6 provides a summary of pharmacokinetic parameters of Compound A after a single IV infusion in healthy subjects.

[1] = intravenous, 180 mg, read-out: Plasma concentration, Maximum
[2] = intravenous, 180 mg, read-out: Plasma concentration, Mean
[3] = intravenous, 180 mg, read-out: Plasma concentration, Median
[4] = intravenous, 180 mg, read-out: Plasma concentration, Minimum
[5] = intravenous, 180 mg, read-out: Plasma concentration, Q1
[6] = intravenous, 180 mg, read-out: Plasma concentration, Q3
[7] = intravenous, 240 mg, read-out: Plasma concentration, Mean
[8] = intravenous, 240 mg, read-out: Plasma concentration, Minimum
[9] = intravenous, 240 mg, read-out: Plasma concentration, Q1

## COC(=O)N1CCC[C@H](NS(C)(=O)=O)[C@@H]1CO[C@H]1CC[C@@H](c2ccccc2)CC1 [Compound A, methyl (2R,3S)-3-((methylsulfonyl)amino)-2-(((cis-4-phenylcyclohexyl)oxy)methyl)piperidine-1-carboxylate]
[1]
  concentration at 1 h: 265 ng/mL
  concentration at 1.5 h: 304 ng/mL
  concentration at 2 h: 341 ng/mL
  concentration at 3 h: 355 ng/mL
  concentration at 4 h: 361 ng/mL
  concentration at 6 h: 322 ng/mL
  concentration at 8 h: 337 ng/mL
[2]
  concentration at 1 h: 216 ng/mL
  concentration at 1.5 h: 255 ng/mL
  concentration at 2 h: 294 ng/mL
  concentration at 3 h: 315 ng/mL
  concentration at 4 hr: 328 ng/mL
  concentration at 6 hr: 292 ng/mL
  concentration at 8 h: 300 ng/mL
[3]
  concentration at 1 hr: 215 ng/mL
  concentration at 1.5 hr: 242 ng/mL
  concentration at 2 hr: 292 ng/mL
  concentration at 3 hr: 314 ng/mL
  concentration at 4 hr: 325 ng/mL
  concentration at 6 hr: 292 ng/mL
  concentration at 8 hr: 292 ng/mL
[4]
  concentration at 1 hr: 173 ng/mL
  concentration at 1.5 hr: 224 ng/mL
  concentration at 2 hr: 251 ng/mL
  concentration at 3 hr: 276 ng/mL
  concentration at 4 hr: 293 ng/mL
  concentration at 6 hr: 252 ng/mL
  concentration at 8 hr: 275 ng/mL
[5]
  concentration at 1 hr: 201 ng/mL
  concentration at 1.5 hr: 228 ng/mL
  concentration at 2 hr: 271 ng/mL
  concentration at 3 hr: 307 ng/mL
  concentration at 4 hr: 304 ng/mL
  concentration at 6 hr: 285 ng/mL
  concentration at 8 hr: 277 ng/mL
[6]
  concentration at 1 h: 229 ng/mL
  concentration at 1.5 h: 290 ng/mL
  concentration at 2 h: 320 ng/mL
  concentration at 3 h: 324 ng/mL
  concentration at 4 h: 358 ng/mL
  concentration at 6 h: 311 ng/mL
  concentration at 8 hr: 330 ng/mL
intravenous, 180 mg, 9 hr, read-out: Plasma concentration, Maximum
  concentration at 9 h: 364 ng/mL
intravenous, 180 mg, 9 hr, read-out: Plasma concentration, Mean
  concentration at 9 h: 325 ng/mL
intravenous, 180 mg, 9 hr, read-out: Plasma concentration, Median
  concentration at 9 hr: 316 ng/mL
intravenous, 180 mg, 9 hr, read-out: Plasma concentration, Minimum
  concentration at 9 hr: 285 ng/mL
intravenous, 180 mg, 9 hr, read-out: Plasma concentration, Q1
  concentration at 9 hr: 311 ng/mL
intravenous, 180 mg, 9 hr, read-out: Plasma concentration, Q3
  concentration at 9 hr: 358 ng/mL
intravenous, 240 mg, 0.5 hr, read-out: Plasma concentration, Mean
  concentration at 0.5 h: 292 ng/mL
intravenous, 240 mg, 0.5 hr, read-out: Plasma concentration, Minimum
  concentration at 0.5 hr: 228 ng/mL
intravenous, 240 mg, 0.5 hr, read-out: Plasma concentration, Q1
  concentration at 0.5 hr: 230 ng/mL
[7]
  concentration at 1 h: 345 ng/mL
  concentration at 1.5 h: 388 ng/mL
  concentration at 2 h: 403 ng/mL
  concentration at 3 h: 456 ng/mL
  concentration at 4 h: 493 ng/mL
  concentration at 6 h: 428 ng/mL
  concentration at 8 h: 474 ng/mL
[8]
  concentration at 1 hr: 265 ng/mL
  concentration at 1.5 hr: 315 ng/mL
  concentration at 2 hr: 337 ng/mL
  concentration at 3 hr: 393 ng/mL
  concentration at 4 hr: 388 ng/mL
  concentration at 6 hr: 335 ng/mL
  concentration at 8 h: 393 ng/mL
[9]
  concentration at 1 hr: 286 ng/mL
  concentration at 1.5 hr: 333 ng/mL
  concentration at 2 hr: 349 ng/mL
  concentration at 3 hr: 400 ng/mL
  concentration at 4 hr: 423 ng/mL
  concentration at 6 hr: 366 ng/mL
  concentration at 8 hr: 409 ng/mL
intravenous, 240 mg, 9 hr, read-out: Plasma concentration, Mean
  concentration at 9 h: 497 ng/mL
intravenous, 240 mg, 9 hr, read-out: Plasma concentration, Minimum
  concentration at 9 hr: 417 ng/mL
intravenous, 240 mg, 9 hr, read-out: Plasma concentration, Q1
  concentration at 9 hr: 452 ng/mL
iv, 7 mg, 7 mg single IV infusion, healthy subjects, read-out: AUC24 Geo Mean
  AUC: 140 ng·h/mL
iv, 7 mg, 7 mg single IV infusion, healthy subjects, read-out: AUC24 Mean
  AUC: 142 ng·h/mL
iv, 7 mg, 7 mg single IV infusion, healthy subjects, read-out: AUC24 Median
  AUC: 142 ng·h/mL
iv, 7 mg, 7 mg single IV infusion, healthy subjects, read-out: AUCinf Geo Mean
  AUC(0-inf): 142 ng·h/mL
iv, 7 mg, 7 mg single IV infusion, healthy subjects, read-out: AUCinf Mean
  AUC(0-inf): 143 ng·h/mL
iv, 7 mg, 7 mg single IV infusion, healthy subjects, read-out: AUCinf Median
  AUC(0-inf): 146 ng·h/mL
iv, 7 mg, 7 mg single IV infusion, healthy subjects, read-out: AUClast Geo Mean
  AUC(0-t): 138 ng·h/mL
iv, 7 mg, 7 mg single IV infusion, healthy subjects, read-out: AUClast Mean
  AUC(0-t): 140 ng·h/mL
iv, 7 mg, 7 mg single IV infusion, healthy subjects, read-out: AUClast Median
  AUC(0-t): 142 ng·h/mL
iv, 7 mg, 7 mg single IV infusion, healthy subjects, read-out: CL Mean (converted)
  clearance: 833 mL/min
iv, 7 mg, 7 mg single IV infusion, healthy subjects, read-out: Ceoi Geo Mean
  concentration at 9 h: 13.4 ng/mL
iv, 7 mg, 7 mg single IV infusion, healthy subjects, read-out: Ceoi Mean
  concentration at 9 h: 13.5 ng/mL
iv, 7 mg, 7 mg single IV infusion, healthy subjects, read-out: Ceoi Median
  concentration at 9 h: 13.9 ng/mL
iv, 7 mg, 7 mg single IV infusion, healthy subjects, read-out: Cmax Geo Mean
  Cmax: 16.7 ng/mL
iv, 7 mg, 7 mg single IV infusion, healthy subjects, read-out: Cmax Mean
  Cmax: 16.9 ng/mL
iv, 7 mg, 7 mg single IV infusion, healthy subjects, read-out: Cmax Median
  Cmax: 16.5 ng/mL
iv, 7 mg, 7 mg single IV infusion, healthy subjects, read-out: Vss Mean
  Vd: 82.9 L
iv, 7 mg, 7 mg single IV infusion, healthy subjects, read-out: Vz Mean
  Vd: 292 L
iv, 7 mg, 7 mg single IV infusion, healthy subjects, read-out: Vz Median
  Vd: 303 L
iv, 7 mg, 7 mg single IV infusion, healthy subjects, read-out: tmax Mean
  Tmax: 3 h
iv, 7 mg, 7 mg single IV infusion, healthy subjects, read-out: tmax Median
  Tmax: 3 h
iv, 14 mg, 14 mg single IV infusion, healthy subjects, read-out: AUC24 Geo Mean
  AUC: 323 ng·h/mL
iv, 14 mg, 14 mg single IV infusion, healthy subjects, read-out: AUC24 Mean
  AUC: 326 ng·h/mL
iv, 14 mg, 14 mg single IV infusion, healthy subjects, read-out: AUC24 Median
  AUC: 322 ng·h/mL
iv, 14 mg, 14 mg single IV infusion, healthy subjects, read-out: AUCinf Geo Mean
  AUC(0-inf): 328 ng·h/mL
iv, 14 mg, 14 mg single IV infusion, healthy subjects, read-out: AUCinf Mean
  AUC(0-inf): 331 ng·h/mL
